From publication PMC3933693, “Novel Inhibitors of Mitochondrial sn-Glycerol 3-phosphate Dehydrogenase” (PLoS ONE, 2014)
Where “and” joins values, the source holds several entries; their conditions need not be identical. Equal entries are not always repeated.

Tests used:
Type in all cases: biochemical
mGPDH [1] = target: T1, mGPDH (Rattus norvegicus, UniProt P35571); test: mGPDH enzymatic activity (DCPIP-linked reduction by glycerol phosphate) in frozen-thawed skeletal muscle mitochondria
T1 construct: from tissue; host or cells: skeletal muscle mitochondria
T1 sequence (P35571 43-727): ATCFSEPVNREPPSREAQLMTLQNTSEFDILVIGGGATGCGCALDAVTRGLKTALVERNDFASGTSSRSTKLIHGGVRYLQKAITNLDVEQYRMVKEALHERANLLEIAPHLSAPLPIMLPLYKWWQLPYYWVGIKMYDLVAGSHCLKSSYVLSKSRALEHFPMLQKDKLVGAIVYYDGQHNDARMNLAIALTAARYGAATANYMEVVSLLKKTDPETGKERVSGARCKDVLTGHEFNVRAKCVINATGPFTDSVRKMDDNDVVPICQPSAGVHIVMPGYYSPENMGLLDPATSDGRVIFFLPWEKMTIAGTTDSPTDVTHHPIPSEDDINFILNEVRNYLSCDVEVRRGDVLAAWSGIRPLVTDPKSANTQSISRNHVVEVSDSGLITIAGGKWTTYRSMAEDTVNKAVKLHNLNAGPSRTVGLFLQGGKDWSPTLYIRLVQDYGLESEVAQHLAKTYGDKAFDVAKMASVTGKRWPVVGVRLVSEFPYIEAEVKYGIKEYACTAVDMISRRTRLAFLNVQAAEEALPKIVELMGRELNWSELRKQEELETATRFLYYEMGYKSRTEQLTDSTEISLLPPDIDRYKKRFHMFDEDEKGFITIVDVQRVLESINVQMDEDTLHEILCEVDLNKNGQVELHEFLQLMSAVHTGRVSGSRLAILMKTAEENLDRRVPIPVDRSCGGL
Experimental: Activity of mGPDH in frozen-thawed skeletal muscle mitochondria was measured as 2,6-dichlorophenolindophenol (DCPIP)-linked reduction by glycerol phosphate as described previously in the presence of 1 µM free calcium. Linear rates of change in absorbance (λ = 600 nm) were measured on the PHERAstar microplate reader and converted to rates of DCPIP reduction using an extinction coefficient of 21 mM^−1 ⋅ cm^−1 and a calculated pathlength of 0.6 cm. Kinetic parameters and inhibitor constants were determined by co-varying glycerol phosphate and novel inhibitors according to recommended procedures and calculated for each data set using GraphPad Prism. Vmax and Km were determined using hyperbolic curves fit to the Michaelis-Menten equation: rate = (Vmax ⋅ [substrate]) ⋅ (K m+[substrate])^ −1. Hill Slope and IC50 were determined using unconstrained, sigmoidal dose-response curve fits of % remaining activity against concentration of iGP. K ic and K iu were determined using plots of rate^−1 vs iGP and GP ⋅ rate^−1 vs iGP, respectively. Linear regression analysis yielded an average x-coordinate at which the best-fit lines intersect. These x-coordinates correspond to -K ic and -K iu in their respective plots. The apparent Vmax of mGPDH is dependent upon the concentration of DCPIP used, [38]. Therefore, to determine the maximal activity of mGPDH in isolated synaptosomes, DCPIP was replaced by 1 mM potassium ferricyanide and linear rates of change in absorbance (λ = 420 nm) were converted to rates of ferricyanide reduction using an extinction coefficient of 1.04 mM^−1 ⋅ cm^−1 and a calculated pathlength of 0.6 cm.

mGPDH [2] = target: T1, mGPDH; test: Superoxide/H2O2 production by mGPDH in isolated skeletal muscle mitochondria (Amplex UltraRed)
[3] = target: T2, outer ubiquinone-binding site of complex III (site IIIQo) (Rattus norvegicus, UniProt P00159+P20788); test: Site-specific H2O2 production from site IIIQo in skeletal muscle mitochondria; details: primary screen, ∼2.5 µM, average of duplicates; 5 mM succinate
T2 construct: from tissue; host or cells: skeletal muscle mitochondria
How it was run: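 Isolated rat skeletal muscle mitochondria; H2O2 read by Amplex UltraRed with added SOD and HRP. Site IF/DH: 5 mM glutamate, 5 mM malate, 4 µM rotenone. Site IIF: palmitoylcarnitine or succinate with rotenone/antimycin A/myxothiazol. Site IIIQo: succinate, rotenone, antimycin A. Screen at 2.5 µM, normalised as % change from DMSO.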

In the case of `O=C(O)CCC(=O)Nc1ccc(-c2nc3ccccc3[nH]2)cc1` [iGP-1], the “mGPDH Activity Hill Slope” value (mGPDH [1]; 1 µM free calcium) is reported as 0.92 and 0.92±0.08, the IC50 (mGPDH [1]; 1 µM free calcium, Fig. 9A) is reported as 6.3 ± 0.7 µM and the “effect on mGPDH enzymatic activity” value (mGPDH [1]; all concentrations tested, Fig. 5) is reported as “significantly inhibited”. For the same molecule, the “K iu (uncompetitive inhibitor dissociation constant)” value (mGPDH [1]; co-varying glycerol phosphate and inhibitor) was 14.6 ± 1.5 µM, the Ki (mGPDH [1]; co-varying glycerol phosphate and inhibitor, read-out: K ic (competitive inhibitor dissociation constant)) was 9.5 ± 1.1 µM and the IC50 (mGPDH [2]; Fig. 4 structure/activity microplate assay, 0.08–80 µM, estimated, means of two replicates, read-out: mGPDH H2O2 production IC50) was 8 µM. The IC50 (mGPDH [2]; Fig. 9B, read-out: mGPDH H2O2 Production IC50) was 13.6 ± 1.3 µM, the “mGPDH (% change from DMSO)” value (mGPDH [2]; primary screen, ∼2.5 µM, average of duplicates, 16.7 mM glycerol phosphate, no added calcium) was -21.6% and the inhibition at 80 µM (mGPDH [2]; read-out: mGPDH H2O2 production (% change at 80 μM)) was 55%. The IC50 (mGPDH [2]; titration up to 80 µM (Fig. 6B, Fig. 7B), read-out: half-maximal effect on H2O2 production by mGPDH) was roughly 8 µM and the “IIIQo (% change from DMSO)” value [3] was -0.246%.
